According to ChEMBL document CHEMBL1938312, “Design and combinatorial synthesis of a novel kinase-focused library using click chemistry-based fragment assembly” (Bioorg Med Chem Lett, 2012):

Legend:
[1] = biological target: T1, Receptor-type tyrosine-protein kinase FLT3 (Homo sapiens, UniProt P36888); test: Inhibition of FLT3 by colorimetric analysis
T1 sequence (P36888 whole entry): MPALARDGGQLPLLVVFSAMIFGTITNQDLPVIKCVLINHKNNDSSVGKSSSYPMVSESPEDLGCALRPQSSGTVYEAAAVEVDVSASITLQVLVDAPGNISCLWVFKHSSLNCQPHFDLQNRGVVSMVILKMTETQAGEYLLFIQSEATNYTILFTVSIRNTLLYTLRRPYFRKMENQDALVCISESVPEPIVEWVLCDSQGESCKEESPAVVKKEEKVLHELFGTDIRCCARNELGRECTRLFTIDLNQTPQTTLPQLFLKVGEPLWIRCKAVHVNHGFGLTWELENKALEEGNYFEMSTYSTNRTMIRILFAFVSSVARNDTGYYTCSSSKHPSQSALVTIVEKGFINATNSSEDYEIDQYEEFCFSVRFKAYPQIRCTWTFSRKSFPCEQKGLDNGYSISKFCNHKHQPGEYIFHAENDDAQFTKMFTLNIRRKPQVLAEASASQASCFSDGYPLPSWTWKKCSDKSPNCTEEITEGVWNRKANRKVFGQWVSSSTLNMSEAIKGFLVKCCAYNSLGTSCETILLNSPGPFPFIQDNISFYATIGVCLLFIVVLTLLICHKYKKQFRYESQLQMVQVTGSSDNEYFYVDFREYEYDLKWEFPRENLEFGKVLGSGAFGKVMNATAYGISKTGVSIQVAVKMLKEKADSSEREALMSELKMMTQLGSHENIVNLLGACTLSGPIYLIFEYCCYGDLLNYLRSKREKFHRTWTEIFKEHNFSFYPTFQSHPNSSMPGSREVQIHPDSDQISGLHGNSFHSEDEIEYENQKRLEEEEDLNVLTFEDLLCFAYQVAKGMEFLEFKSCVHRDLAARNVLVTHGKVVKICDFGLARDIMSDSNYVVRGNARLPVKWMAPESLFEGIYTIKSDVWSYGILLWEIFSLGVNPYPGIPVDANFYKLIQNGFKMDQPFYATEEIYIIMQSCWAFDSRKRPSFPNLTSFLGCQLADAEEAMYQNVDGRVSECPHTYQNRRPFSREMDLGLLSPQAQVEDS

[2] = biological target: Glycogen synthase kinase-3 beta (Homo sapiens, UniProt P49841); test: Inhibition of GSK3-beta by colorimetric analysis
Chain of Glycogen synthase kinase-3 beta (P49841 whole entry): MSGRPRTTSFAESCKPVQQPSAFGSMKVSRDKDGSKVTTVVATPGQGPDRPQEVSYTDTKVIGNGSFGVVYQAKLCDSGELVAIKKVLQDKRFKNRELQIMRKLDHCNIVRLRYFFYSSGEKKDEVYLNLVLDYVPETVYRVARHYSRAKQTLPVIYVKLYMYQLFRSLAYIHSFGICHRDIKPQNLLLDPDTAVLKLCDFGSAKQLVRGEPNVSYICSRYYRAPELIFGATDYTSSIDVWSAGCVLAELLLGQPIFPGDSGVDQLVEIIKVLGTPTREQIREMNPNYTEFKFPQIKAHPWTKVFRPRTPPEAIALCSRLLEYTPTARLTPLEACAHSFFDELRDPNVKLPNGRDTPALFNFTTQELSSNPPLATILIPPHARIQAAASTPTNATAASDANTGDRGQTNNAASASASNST

| IC50 [1] | IC50 [2] | SMILES |
| --- | --- | --- |
| 3.1 µM | 2.8 µM | c1cnc2cc(-c3cnnn3C3C4CC5CC(C4)CC3C5)ccc2n1 (stereo unspecified) |
| 10.2 µM | – | c1ccc(-c2cnnn2C2C3CC4CC(C3)CC2C4)nc1 (stereo unspecified) |
| 4.8 µM | 2.6 µM | c1cc(-c2cnnn2C2C3CC4CC(C3)CC2C4)ccn1 (stereo unspecified) |
| 9.7 µM | – | c1cnc2cc(-c3cn(C4C5CC6CC(C5)CC4C6)nn3)ccc2n1 (stereo unspecified) |
| 12.4 µM | – | Fc1ccc(-n2cc(-c3ccc4nccnc4c3)nn2)cc1 |
| 10.9 µM | – | c1cnc2cc(-c3cn(CCN4CCOCC4)nn3)ccc2n1 |

Continued, molecule first:

| SMILES | IC50 [1] | IC50 [2] |
| --- | --- | --- |
| Cc1ccc(-n2cc(-c3ccncc3)nn2)cc1 | 6.6 µM | – |
| Cc1ccc(-n2cc(-c3ccccn3)nn2)cc1 | 1.1 µM | > 30 µM |
| c1ccc(Cn2cc(-c3ccc4nccnc4c3)nn2)cc1 | 6.3 µM | 9.5 µM |
| Cc1ccccc1-n1cc(-c2ccccn2)nn1 | 9.3 µM | 0.49 µM |
| Fc1ccc(-n2cc(-c3ccccn3)nn2)cc1 | 6.7 µM | – |
| Fc1ccc(-n2nncc2-c2ccncc2)cc1 | 1.4 µM | – |
| Cc1ccc(-n2nncc2-c2ccncc2)cc1 | 2.3 µM | – |
| Clc1ccc(-n2cc(-c3ccccn3)nn2)cc1 | 6.3 µM | – |
| Cc1ccccc1-n1nncc1-c1ccncc1 | 6.2 µM | 6.3 µM |
